From patent US20220064204A1, “AMORPHOUS FORM OF 5-BROMOPYRIDIN-3-YL 3-DEOXY-3-[4-(3,4,5-TRIFLUOROPHENYL)-1H-1,2,3-TRIAZOL-1-YL]-1-THIO-ALPHA-D-GALACTOPYRANOSIDE” (GALECTO BIOTECH AB, priority 2018, published 2022)
Like-named read-outs stand apart in the source and are kept apart here.

Columns and labels:
[1] = Phase 1 first-in-human study, single oral dose pharmacokinetics in healthy subjects (drug layered formulation capsules); format: in vivo; settings: plasma; for half-life / AUC(0-t) / Tmax / AUC(0-inf): human; for half-life / AUC(0-t) / Tmax: po; for half-life / AUC(0-t) / AUC(0-inf): geometric mean; for AUC(0-t): read-out: AUC0-24; for Tmax / Tlog: median
Description: The first part of this study aims to obtain safety, tolerability and pharmacokinetic data when the compound of formula I is administered orally as a single dose in healthy subjects using the above drug layered formulation.
Experimental Data from Healthy Subject Cohort A1: 5 mg Compound of Formula I (API)
6 healthy subjects received 5 mg of compound of formula I capsules orally as a single dose in the fasted state, and 2 subjects receive placebo. The first 2 subjects (1 active and 1 placebo) were dosed 24 hours before the remaining subjects. Blood samples for pharmacokinetic analysis of plasma API concentrations were obtained by venipuncture before dosing, and then at 0.5, 1, 1.5, 2, 3, 4, 6, 8, 12, 16, 24, 36, and 48 hours post dose. […]
Experimental Data from Healthy Subject Cohort A3 Fasted: 50 mg Compound of Formula I (API)
(§1) 6 healthy subjects received 50 mg of compound of formula I capsules orally as a single dose in the fasted state, and 2 subjects receive placebo. The first 2 subjects (1 active and 1 placebo) were dosed 24 hours before the remaining subjects. Blood samples for pharmacokinetic analysis of plasma API concentrations were obtained by venipuncture before dosing, and then at 0.5, 1, 1.5, 2, 3, 4, 6, 8, 12, 16, 24, 36, and 48 hours post dose.
Experimental Data from Healthy Subject Cohort A3 Fed: 50 mg Compound of Formula I (API)
as §1, with “fed” for “fasted”, “dose. […]” for “dose.”
Experimental Data from Healthy Subject Cohort A5: 100 mg Compound of Formula I (API)
as §1, with “100” for “50”
Experimental Data from Healthy Subject Cohort A6: 200 mg Compound of Formula I (API)
as §1, with “200” for “50”
Experimental Data from Healthy Subject Cohort A7: 400 mg Compound of Formula I (API)
as §1, with “400” for “50”

[2] = Phase 1 study, multiple oral dose (twice a day for 10 days) pharmacokinetics in healthy subjects; format: in vivo, human; settings: fasted state; for half-life: po
Description: The second part of this study aims to obtain safety, tolerability and pharmacokinetic data when the compound of formula I is administered orally dosed twice a day for 10 days in healthy subjects using the above drug layered formulation.
Experimental Data from Healthy Subject Cohort B1: 50 mg Compound of Formula I (API)
(§2) 8 healthy subjects received 50 mg of compound of formula I capsules and 3 subjects receive placebo orally twice a day for 10 days. Blood samples for pharmacokinetic analysis of plasma API concentrations were obtained by venipuncture before dosing on day 1, and then at 0.5, 1, 1.5, 2, 3, 4, 6, 8, 12, 16, 24, 36, and 48 hours post dose. Blood sampling was repeated on day 10.
Experimental Data from Healthy Subject Cohort B2: 100 mg Compound of Formula I
as §2, with “received 100” for “received 50”, “16, 24” for “16, 24, 36, and 48”, “repeated at” for “repeated on”

[3] = Dissolution of filled capsules / pellets in biorelevant media (FaSSIF); format: physicochemical; settings: 18 hours
Description: As an alternative to poloxamer 188, the surfactant SLS was also evaluated to aid in the dispersion of the SDD.
The resulting drug layered pellets were analysed by UV-HPLC to determine the drug loading as well as by SEM, XRPD and Dissolution in biorelevant media.
The dissolution profile of the drug-layered pellets was compared to the dissolution profiles of the API alone as well an ASD formulation (physical mixture of SDD (API:HPMC603=1:2) and poloxamer 188) (see FIG. 4).

[4] = First in human study, safety and tolerability, single and multiple ascending doses; format: in vivo; settings: oral
Description: The compound of formula I is tested in a Phase 1, randomized, double-blind, placebo-controlled, first-in-human study in which the safety, tolerability, and pharmacokinetics of orally administered compound of formula I is evaluated in healthy adult subjects and adult subjects with indication of suspected Nonalcoholic steatohepatitis (NASH) and liver fibrosis.
This study aims to obtain safety, tolerability and pharmacokinetic data when the compound of formula I is administered orally as single doses and as multiple doses to healthy subjects. In addition, an optional part has been included to obtain safety and tolerability data when the compound of formula I is administered orally as multiple doses to subjects with suspected Nonalcoholic steatohepatitis (NASH) and liver fibrosis.

[5] = Material characterization by TGA and dynamic vapor sorption (DVS); format: physicochemical; settings: crystalline compound
[6] = Solubility of the crystalline compound (statement); format: physicochemical; settings: highly crystalline compound
[7] = 5 mg, single oral dose 5 mg, fasted state
[8] = 20 mg, single oral dose 20 mg, fasted state
[9] = 50 mg, single oral dose 50 mg (1 × 50 mg), fasted state
[10] = 50 mg, single oral dose 50 mg (1 × 50 mg), fed state
[11] = 100 mg, single oral dose 100 mg, fasted state
[12] = 200 mg, single oral dose 200 mg, fasted state
[13] = 400 mg, single oral dose 400 mg, fasted state
[14] = single oral dose 100 mg, fasted state
[15] = single oral dose 200 mg, fasted state
[16] = single oral dose 400 mg, fasted state
[17] = 50 mg BID oral, Day 10, healthy subjects, geometric mean
[18] = 100 mg BID oral, Day 10, healthy subjects, geometric mean

half-life [1, 7]: 11.2 h
AUC(0-t) [1, 7]: 585 ng·h/mL
Tmax [1, 7]: 2 h
half-life [1, 8]: 12.4 h
AUC(0-t) [1, 8]: 2670 ng·h/mL
half-life [1, 9]: 12.6 h
AUC(0-t) [1, 9]: 3400 ng·h/mL
Tmax [1, 9]: 3 h
half-life [1, 10]: 12.8 h
AUC(0-t) [1, 10]: 3820 ng·h/mL
Tmax [1, 10]: 5 h
AUC(0-t) ([1]; 50 mg, single oral dose 50 mg (10 × 5 mg), fasted state): 5770 ng·h/mL
half-life [1, 11]: 12.1 h
AUC(0-t) [1, 11]: 4900 ng·h/mL
Tmax [1, 11]: 3.5 h
half-life [1, 12]: 15.1 h
AUC(0-t) [1, 12]: 9050 ng·h/mL
Tmax [1, 12]: 3.5 h
half-life [1, 13]: 14.5 h
AUC(0-t) [1, 13]: 15100 ng·h/mL
Tmax [1, 13]: 4 h
AUC(0-inf) [1, 14]: 6360 ng·h/mL
AUC(0-inf) [1, 15]: 13100 ng·h/mL
AUC(0-inf) [1, 16]: 21500 ng·h/mL
Tlog ([1]; single oral dose 5 mg, fasted state): 0.00 h
Tlog ([1]; single oral dose 20 mg, fasted state): 0.00 h
Tlog ([1]; single oral dose 50 mg (1 × 50 mg), fasted state): 0.00 h
Tlog ([1]; single oral dose 50 mg (1 × 50 mg), fed state): 0.75 h
Tlog ([1]; single oral dose 50 mg (10 × 5 mg), fasted state): 0.00 h
Tlog [1, 14]: 0.00 h
Tlog [1, 15]: 0.00 h
Tlog [1, 16]: 0.00 h
Cmin [2, 17]: 249 ng/mL
RAAUC [2, 17]: 2.31
Cmin [2, 18]: 338 ng/mL
RAAUC [2, 18]: 2.11
half-life ([2]; human, plasma, 50 mg, 50 mg BID oral, Day 1, geometric mean, unreliable due to short sampling duration 0-12 hours, exploratory): 7.34 h
half-life ([2]; human, plasma, 50 mg, 50 mg BID oral, Day 10, healthy subjects, geometric mean): 20.2 h
half-life ([2]; human, plasma, 100 mg, 100 mg BID oral, Day 1, geometric mean, unreliable due to short sampling duration 0-12 hours, exploratory): 7.04 h
half-life ([2]; human, plasma, 100 mg, 100 mg BID oral, Day 10, healthy subjects, geometric mean): 12.5 h
Cmax ([2]; human, plasma, 50 mg BID oral, Day 1, healthy subjects, geometric mean): 330 ng/mL
API released in the dissolution media ([3]; FaSSIF): less than 12%
API concentration in FaSSIF ([3]; dissolution): 0.011 mg/mL
hydrate formation ([5]; DVS): no indication of hydrate formation
hygroscopicity ([5]; dynamic vapor sorption (DVS)): not hygroscopic
solubility [6]: relatively low solubility
Structure (SMILES): OC[C@H]1O[C@H](Sc2cncc(Br)c2)[C@H](O)[C@@H](n2cc(-c3cc(F)c(F)c(F)c3)nn2)[C@H]1O [GB1211, 5-Bromopyridin-3-yl 3-deoxy-3-[4-(3,4,5-trifluorophenyl)-1H-1,2,3-triazol-1-yl]-1-thio-α-D-galactopyranoside]
safety and tolerability in man [4]: safe and well tolerated
